The source of these data is patent publication US6495680B1, “Helices and nanotubes on folding compositions and method of making same” (The University of Toledo, priority 2000, dated 2002).

The nature of the series: Solubility of oligomers in organic solvents. Type of series: physicochemical. From the text: Oligomers such as the homologues H, K, L, M, N, and O are synthesized by treating acid chloride with the corresponding amines.
From H to N, all the amide-H resonances appear at positions >9.2 ppm. […] That one amide-H resonance, appears at δ8.86.

In the case of `COc1ccccc1NC(=O)c1cc(NC(=O)c2cc([N+](=O)[O-])c(OC)cc2OC)c(OC)cc1OC` [K], under “DMF”, the “solubility in DMF” value was “increasingly insoluble”. In addition, the “behaviour of the freshly prepared compound in DMF on standing” value (freshly prepared, added to DMF, standing at room temperature, precipitation faster at elevated temperatures) is listed as “gradually precipitate out”.
